Data taken from the supplement of paper PMC11424490.

Legend:
Test in all cases: combination cScore with adagrasib (Bliss gap around IC50) (%PoC); higher = stronger additive effect
[1] = test system: SW837
In short: (§1)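 NCI-H2122, NCI-H358 and SW837 cells were plated in 384-well plates at 500 or 800 cells per well, treated with concentration matrices after 24 h, and grown for 72 h (SW837 for 144 h). Luminescence from CellTiter-Glo was expressed as percent of control relative to vehicle wells and fitted with four-parameter curves. The score is the mean Bliss-independence gap, expected minus measured viability, across a field around both monotherapy IC50 values, or across the top concentrations where no IC50 was reached.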

[2] = test system: NCI-H2122
In short: as §1

[3] = test system: NCI-H358
In short: as §1

## COc1cccc2c1C(=O)c1c(O)c3c(c(O)c1C2=O)C[C@@](O)(C(C)=O)C[C@@H]3O[C@H]1C[C@H](N)[C@H](O)[C@H](C)O1 [Daunorubicin] + C=C(F)C(=O)N1CCN(c2nc(OC[C@@H]3CCCN3C)nc3c2CCN(c2cccc4cccc(Cl)c24)C3)C[C@@H]1CC#N [adagrasib]
[1]
  combination cScore with adagrasib: 4.77
[2]
  combination cScore with adagrasib: 4.15
[3]
  combination cScore with adagrasib: -0.64

## CC/C(=C(\c1ccccc1)c1ccc(OCCN(C)C)cc1)c1ccccc1 [Tamoxifen] + C=C(F)C(=O)N1CCN(c2nc(OC[C@@H]3CCCN3C)nc3c2CCN(c2cccc4cccc(Cl)c24)C3)C[C@@H]1CC#N [adagrasib]
[1]
  combination cScore with adagrasib: 5.45
[2]
  combination cScore with adagrasib: 10.3
[3]
  combination cScore with adagrasib: 6.27

## O=C(O)CNC(=O)c1c(O)c2ccccc2n(Cc2ccccc2)c1=O [IOX2] + C=C(F)C(=O)N1CCN(c2nc(OC[C@@H]3CCCN3C)nc3c2CCN(c2cccc4cccc(Cl)c24)C3)C[C@@H]1CC#N [adagrasib]
[1]
  combination cScore with adagrasib: 13.4
[2]
  combination cScore with adagrasib: 25.2
[3]
  combination cScore with adagrasib: 0.22

## CCNC(=O)C[C@@H]1N=C(c2ccc(Cl)cc2)c2cc(OC)ccc2-n2c(C)nnc21 [iBET-762] + C=C(F)C(=O)N1CCN(c2nc(OC[C@@H]3CCCN3C)nc3c2CCN(c2cccc4cccc(Cl)c24)C3)C[C@@H]1CC#N [adagrasib]
[1]
  combination cScore with adagrasib: 0.28
[2]
  combination cScore with adagrasib: 22.7
[3]
  combination cScore with adagrasib: 5.14

## Cc1ccc(C(=O)Nc2ccc(CN3CCN(C)CC3)c(C(F)(F)F)c2)cc1C#Cc1cnc2cccnn12 [Ponatinib] + C=C(F)C(=O)N1CCN(c2nc(OC[C@@H]3CCCN3C)nc3c2CCN(c2cccc4cccc(Cl)c24)C3)C[C@@H]1CC#N [adagrasib]
[1]
  combination cScore with adagrasib: -0.53
[2]
  combination cScore with adagrasib: 14.4
[3]
  combination cScore with adagrasib: 3.62

## C=CC(=O)N1CCC[C@@H](n2nc(-c3ccc(Oc4ccccc4)cc3)c3c(N)ncnc32)C1 [Ibrutinib] + C=C(F)C(=O)N1CCN(c2nc(OC[C@@H]3CCCN3C)nc3c2CCN(c2cccc4cccc(Cl)c24)C3)C[C@@H]1CC#N [adagrasib]
[1]
  combination cScore with adagrasib: 2.16
[2]
  combination cScore with adagrasib: 26.9
[3]
  combination cScore with adagrasib: 9.97

## O=C(c1cc(Cc2n[nH]c(=O)c3ccccc23)ccc1F)N1CCN(C(=O)C2CC2)CC1 [Olaparib] + C=C(F)C(=O)N1CCN(c2nc(OC[C@@H]3CCCN3C)nc3c2CCN(c2cccc4cccc(Cl)c24)C3)C[C@@H]1CC#N [adagrasib]
[1]
  combination cScore with adagrasib: 2.95
[2]
  combination cScore with adagrasib: 5.71
[3]
  combination cScore with adagrasib: 1.38

## Cc1nc(-c2cn3c(n2)-c2ccc(-c4cnn(C(C)(C)C(N)=O)c4)cc2OCC3)n(C(C)C)n1 [Taselisib] + C=C(F)C(=O)N1CCN(c2nc(OC[C@@H]3CCCN3C)nc3c2CCN(c2cccc4cccc(Cl)c24)C3)C[C@@H]1CC#N [adagrasib]
[1]
  combination cScore with adagrasib: 26.6
[2]
  combination cScore with adagrasib: 18.1
[3]
  combination cScore with adagrasib: 7.08

## CC(C)n1nc(-c2ccc3oc(N)nc3c2)c2c(N)ncnc21 [MLN-0128] + C=C(F)C(=O)N1CCN(c2nc(OC[C@@H]3CCCN3C)nc3c2CCN(c2cccc4cccc(Cl)c24)C3)C[C@@H]1CC#N [adagrasib]
[1]
  combination cScore with adagrasib: 9.3
[2]
  combination cScore with adagrasib: 7.57
[3]
  combination cScore with adagrasib: 0.5

## O=C(c1c(F)ccc(NS(=O)(=O)N2CC[C@@H](F)C2)c1F)c1c[nH]c2ncc(-c3cnc(C4CC4)nc3)cc12 [PLX8394] + C=C(F)C(=O)N1CCN(c2nc(OC[C@@H]3CCCN3C)nc3c2CCN(c2cccc4cccc(Cl)c24)C3)C[C@@H]1CC#N [adagrasib]
[1]
  combination cScore with adagrasib: -2.23
[2]
  combination cScore with adagrasib: 17.5
[3]
  combination cScore with adagrasib: 0.57

## C=CC(=O)Nc1cc(Nc2nccc(-c3cn(C)c4ccccc34)n2)c(OC)cc1N(C)CCN(C)C [Osimertinib] + C=C(F)C(=O)N1CCN(c2nc(OC[C@@H]3CCCN3C)nc3c2CCN(c2cccc4cccc(Cl)c24)C3)C[C@@H]1CC#N [adagrasib]
[1]
  combination cScore with adagrasib: 26.1
[2]
  combination cScore with adagrasib: 10
[3]
  combination cScore with adagrasib: 8.16

## O=C(/C=C/N1C[C@H]2C[C@@H]1CN2c1ccccn1)c1ccccc1O [PFI-3] + C=C(F)C(=O)N1CCN(c2nc(OC[C@@H]3CCCN3C)nc3c2CCN(c2cccc4cccc(Cl)c24)C3)C[C@@H]1CC#N [adagrasib]
[1]
  combination cScore with adagrasib: -2.21
[2]
  combination cScore with adagrasib: 15.8
[3]
  combination cScore with adagrasib: -3.19

## COc1cc2nc(C)nc(N[C@H](C)c3cc(N)cc(C(F)(F)F)c3)c2cc1O[C@H]1CCOC1 [BI-3406 (SOSi)] + C=C(F)C(=O)N1CCN(c2nc(OC[C@@H]3CCCN3C)nc3c2CCN(c2cccc4cccc(Cl)c24)C3)C[C@@H]1CC#N [adagrasib]
[1]
  combination cScore with adagrasib: 19.4
[2]
  combination cScore with adagrasib: 28
[3]
  combination cScore with adagrasib: 10.7

## O=C(/C=C/c1cccc(S(=O)(=O)Nc2ccccc2)c1)NO [Belinostat] + C=C(F)C(=O)N1CCN(c2nc(OC[C@@H]3CCCN3C)nc3c2CCN(c2cccc4cccc(Cl)c24)C3)C[C@@H]1CC#N [adagrasib]
[1]
  combination cScore with adagrasib: 5.49
[2]
  combination cScore with adagrasib: 7.12
[3]
  combination cScore with adagrasib: -4.65

## COc1ncc(-c2ccc3nccc(-c4ccnnc4)c3c2)cc1NS(=O)(=O)c1ccc(F)cc1F + C=C(F)C(=O)N1CCN(c2nc(OC[C@@H]3CCCN3C)nc3c2CCN(c2cccc4cccc(Cl)c24)C3)C[C@@H]1CC#N [adagrasib]
[1]
  combination cScore with adagrasib: 4.03
[2]
  combination cScore with adagrasib: 23.1
[3]
  combination cScore with adagrasib: 5.98

## COc1cc2/c(=N/c3ccc(Br)cc3F)nc[nH]c2cc1OCC1CCN(C)CC1 [Vandetanib] + C=C(F)C(=O)N1CCN(c2nc(OC[C@@H]3CCCN3C)nc3c2CCN(c2cccc4cccc(Cl)c24)C3)C[C@@H]1CC#N [adagrasib]
[1]
  combination cScore with adagrasib: 27.6
[2]
  combination cScore with adagrasib: 21.3
[3]
  combination cScore with adagrasib: 7.95

## CC[C@H](Nc1ncnc2[nH]cnc12)c1nc2cccc(F)c2c(=O)n1-c1ccccc1 [Cal-101] + C=C(F)C(=O)N1CCN(c2nc(OC[C@@H]3CCCN3C)nc3c2CCN(c2cccc4cccc(Cl)c24)C3)C[C@@H]1CC#N [adagrasib]
[1]
  combination cScore with adagrasib: 1.53
[2]
  combination cScore with adagrasib: 14.1
[3]
  combination cScore with adagrasib: 5.08

## O=C1c2c(O)ccc(O)c2C(=O)c2c(NCCNCCO)ccc(NCCNCCO)c21 [Mitoxantrone] + C=C(F)C(=O)N1CCN(c2nc(OC[C@@H]3CCCN3C)nc3c2CCN(c2cccc4cccc(Cl)c24)C3)C[C@@H]1CC#N [adagrasib]
[1]
  combination cScore with adagrasib: 5.32
[2]
  combination cScore with adagrasib: 12.9
[3]
  combination cScore with adagrasib: 0.02

## CCS(=O)(=O)Nc1ccc2c(c1)/C(=C(/Nc1ccc(CN3CCCCC3)cc1)c1ccccc1)C(=O)N2 [Hesperadin] + C=C(F)C(=O)N1CCN(c2nc(OC[C@@H]3CCCN3C)nc3c2CCN(c2cccc4cccc(Cl)c24)C3)C[C@@H]1CC#N [adagrasib]
[1]
  combination cScore with adagrasib: 0.27
[2]
  combination cScore with adagrasib: 8.14
[3]
  combination cScore with adagrasib: 0.47

## Cc1c(N)nc([C@H](CC(N)=O)NC[C@H](N)C(N)=O)nc1C(=O)N[C@H](C(=O)N[C@H](C)[C@@H](O)[C@H](C)C(=O)N[C@H](C(=O)NCCc1nc(-c2nc(C(=O)NCCC[S+](C)C)cs2)cs1)[C@@H](C)O)[C@@H](OC1OC(CO)C(O)C(O)C1OC1OC(CO)C(O)C(OC(N)=O)C1O)c1cnc[nH]1 (some centres undefined) [Bleomycin] + C=C(F)C(=O)N1CCN(c2nc(OC[C@@H]3CCCN3C)nc3c2CCN(c2cccc4cccc(Cl)c24)C3)C[C@@H]1CC#N [adagrasib]
[1]
  combination cScore with adagrasib: 7.34
[2]
  combination cScore with adagrasib: 17.2
[3]
  combination cScore with adagrasib: -5.7

## Oc1nc(-c2ccc(C(F)(F)F)cc2)nc2c1CSCC2 [XAV939] + C=C(F)C(=O)N1CCN(c2nc(OC[C@@H]3CCCN3C)nc3c2CCN(c2cccc4cccc(Cl)c24)C3)C[C@@H]1CC#N [adagrasib]
[1]
  combination cScore with adagrasib: 5.74
[2]
  combination cScore with adagrasib: 23.8
[3]
  combination cScore with adagrasib: 4.11

## CS(=O)(=O)CCNCc1ccc(-c2ccc3ncnc(Nc4ccc(OCc5cccc(F)c5)c(Cl)c4)c3c2)o1 [Lapatinib] + C=C(F)C(=O)N1CCN(c2nc(OC[C@@H]3CCCN3C)nc3c2CCN(c2cccc4cccc(Cl)c24)C3)C[C@@H]1CC#N [adagrasib]
[1]
  combination cScore with adagrasib: 11.2
[2]
  combination cScore with adagrasib: 18.6
[3]
  combination cScore with adagrasib: 11.3

## CNS(=O)(=O)Nc1nccc(Cc2c(C)c3ccc(Oc4ncccn4)cc3oc2=O)c1F + C=C(F)C(=O)N1CCN(c2nc(OC[C@@H]3CCCN3C)nc3c2CCN(c2cccc4cccc(Cl)c24)C3)C[C@@H]1CC#N [adagrasib]
[1]
  combination cScore with adagrasib: 3.07
[2]
  combination cScore with adagrasib: 9.73
[3]
  combination cScore with adagrasib: 3.4
